# Results: US20240209388A1, “EXPRESSION VECTOR OF GLYPHOSATE-RESISTANT GENES GR79 AND GAT, HIGH GLYPHOSATE-RESISTANT CORN, AND DETECTION METHOD THEREFOR” (BIOTECHNOLOGY RESEARCH INSTITUTE, CHINESE ACADEMY OF …, priority 2021, published 2024)
# “Also recorded” adds a separate entry of the source. Like-named read-outs stand apart in the source and are kept apart here.
# What was measured:
# [1] = system: transgenic corn GG2; test: Field glyphosate tolerance of the transgenic corn event GG2; format: in vivo, Zea mays; conditions: for plant height 1 week BC4 / plant height 1 week BC5: 1 week after application; for plant height 2 weeks BC4 / plant height 2 weeks BC5: 2 weeks after application; for plant height 4 weeks BC4 / plant height 4 weeks BC5: 4 weeks after application
# Procedure: Field herbicide tolerance of transgenic corn was tested in accordance with the Test for Environmental Safety of Transgenic Plant and its Products Part 1 of Herbicide-Resistant Corn: herbicide Tolerance (No. 953 bulletin-11.1-2007 of the Ministry of Agriculture and Rural Affairs).
# The test material was the transgenic corn GG2, and the corresponding non-transgenic corn. The herbicide was glyphosate. […] An isolation belt (a width of 1.0 m) was set among the blocks. Treatments include: transgenic corn not sprayed with a herbicide, transgenic corn sprayed with a target herbicide (glyphosate), non-transgenic corn not sprayed with a herbicide, and non-transgenic corn sprayed with a target herbicide (glyphosate). The application amount of the herbicide was 1-fold, 2 times, and 4 times the medium dose (active ingredient: 900 g/hectare) on the pesticide registration tag, respectively. The herbicide was applied at the four to five-leaf stage of corn. The rate of survival, plant height, and symptom of pesticide damage were surveyed and recorded 1, 2, and 4 weeks later after application, respectively. The symptom of pesticide damage was graded according to GB/T 19780.42. Glyphosate in the transgenic corn GG2, and in its corresponding transgenic control, and non-transgenic control was identified.
# [2] = system: transgenic maize; conditions: AM79 single-gene transgenic maize; cited from earlier work
# [3] = system: bivalent GAT and GR79 transgenic corn; test: Screening of high glyphosate-resistant events of bivalent GAT and GR79 transgenic corn; format: in vivo, Zea mays; conditions: for transformation events free of symptom of pesticide damage: 4 weeks after application
# Procedure: 2 times the medium dose of glyphosate (active ingredient: 1800 g/hectare) was continuously applied, and survey was conducted 4 weeks later after application, 63 transformation events were free of symptom of pesticide damage. The T2 generation of materials of the screened 63 transformation events were sown and sprayed with glyphosate at the four to five-leaf stage in a spraying amount of 1-fold, 2 times, and 4 times the medium dose (active ingredient: 900 g/hectare) on the pesticide registration tag. The rate of survival and symptom of pesticide damage of each transformation event were surveyed and recorded 4 weeks later after application. 47 transformation events were free of symptom of pesticide damage after sprayed with 4 times the medium dose of glyphosate and thus, were high glyphosate-resistant materials, accounting for 61.84% of the 76 positive transgenic materials. The screening concentration continued to be increased; when it was up to 8 times (active ingredient: 7200 g/hectare) the medium dose, 6 transformation events were not affected.
# [4] = system: monovalent GAT transgenic corn; test: Screening of high glyphosate-resistant events of monovalent GAT transgenic corn; format: in vivo, Zea mays
# Excerpt: To determine the effect of the combined use of double genes on high glyphosate tolerance, the transgenic corn transformed with the single gene GAT was subjected to glyphosate tolerance test according to the same screening process, 8 transformation events which could be resistant to 4 times glyphosate were obtained finally, accounting for 21.05% of the 38 positive transgenic materials. By comparison of the two, the bivalent GAT and GR79 transgenic glyphosate-resistant corn was easier to obtain high glyphosate-resistant materials.
# [5] = system: bivalent GAT and GR79 transgenic herbicide-resistant corn; format: in vivo; conditions: high dose on the pesticide registration tag, four to six leaves, surveyed 1, 2, 4 weeks after application
# Excerpt: (§1) transgenic corn to non-target herbicide 3 types of herbicides were set in this test, i.e., mesotrione· propisochlor atrazine SC (3.5% mesotrione, 15% propisochlor, and 15% atrazine) commonly used in corn field, glufosinate-ammonium (20% active ingredient) sensitive to corn, and haloxyfop-R-methyl (10.8% active ingredient), respectively. 4 treatments were set: (1) free of spraying herbicide; (2) spraying mesotrione· propisochlor atrazine SC; (3) spraying glufosinate-ammonium; and (4) spraying haloxyfop-R-methyl. The spraying dose is a high dose on the pesticide registration tag. Stems and leaves were sprayed when corn grew to four to six leaves. Seedling rate and symptom of pesticide damage were surveyed 1, 2, and 4 weeks later after application, respectively.
# [6] = system: non-transgenic control corn; format: in vivo; conditions: high dose on the pesticide registration tag, four to six leaves, surveyed 1, 2, 4 weeks after application
# Excerpt: as §1
# [7] = system: transgenic cotton; conditions: T1 generation, solution diluted to 1/200 (0.205 g/100 ml), 450 L/hectare; cited from earlier work
# [8] = GG2 BC4, 1-fold the medium dose
# [9] = GG2 BC4, 2 times the medium dose
# [10] = GG2 BC4, 4 times the medium dose
# [11] = GG2 BC5, 1-fold the medium dose
# [12] = GG2 BC5, 2 times the medium dose
# [13] = GG2 BC5, 4 times the medium dose
# [14] = 8 times the medium dose (active ingredient: 7200 g/hectare)
smiles,measurement,setting,value
O=C(O)CNCP(=O)(O)O [glyphosate],plant height versus transgenic corn not sprayed,"[1]; GG2, 1-fold, 2 and 4 times the medium dose",no significant difference
same,symptom of damage,"[1]; GG2, 1-fold, 2 and 4 times the medium dose, each stage, two consecutive generations",free of symptom of damage
same,plant height 1 week BC4,"[1]; GG2 BC4, 1-fold the medium dose (900 g active ingredient/hectare)",58.52 cm
same,plant height 2 weeks BC4,[1]; [8],85.59 cm
same,plant height 4 weeks BC4,[1]; [8],158.39 cm
same,plant height 1 week BC4,[1]; [9],51.24 cm
same,plant height 2 weeks BC4,[1]; [9],79.38 cm
same,plant height 4 weeks BC4,[1]; [9],147.75 cm
same,plant height 1 week BC4,[1]; [10],59.81 cm
same,plant height 2 weeks BC4,[1]; [10],88.41 cm
same,plant height 4 weeks BC4,[1]; [10],158.53 cm
same,plant height 1 week BC5,[1]; [11],33.87 cm
same,plant height 2 weeks BC5,[1]; [11],51.71 cm
same,plant height 4 weeks BC5,[1]; [11],136.37 cm
same,plant height 1 week BC5,[1]; [12],33.11 cm
same,plant height 2 weeks BC5,[1]; [12],54.29 cm
same,plant height 4 weeks BC5,[1]; [12],139.65 cm
same,plant height 1 week BC5,[1]; [13],34.65 cm
same,plant height 2 weeks BC5,[1]; [13],53.78 cm
same,plant height 4 weeks BC5,[1]; [13],137.39 cm
same,glyphosate dose GG2 is resistant to,[1]; medium dose 900 g active ingredient/hectare,4 times the medium dose
same,tolerated dose (active ingredient),[2],3600 g/hectare
same,high glyphosate-resistant materials as share of the 76 positive transgenic materials,[3]; 4 times the medium dose,61.84%
same,transformation events not affected,[3]; [14],6
same,harm by glyphosate during multi-generation screening,[3]; GG2 transformation event,not endangered by glyphosate
same,transformation events free of symptom of pesticide damage,"[3]; T1, 2 times the medium dose (active ingredient: 1800 g/hectare)",63
same,survival transformation events,"[3]; T1 generation of 76 double-positive events, four-leaf stage, medium dose (active ingredient: 900 g/hectare)",72
same,rate of zero symptom of pesticide damage,"[3]; T1 generation of 76 double-positive events, medium dose (active ingredient: 900 g/hectare)",94.7%
same,transformation events free of symptom of pesticide damage,"[3]; T2 of 63 events, 4 times the medium dose",47
same,resistant events as share of the 38 positive transgenic materials,[4]; 4 times glyphosate,21.05%
same,plant survival,[4]; [14],no survival plant
same,transformation events resistant to 4 times glyphosate,"[4]; of 38 positive single-gene GAT materials, 4 times the medium dose",8
same,leaf symptoms of pesticide damage,"[4]; partial high-resistant GAT events, a few days after 4 times the medium dose",mild symptoms of herbicide damage; also recorded: mild symptoms of pesticide damage
CP(=O)(O)CCC(N)C(=O)O (centres unmarked) [glufosinate-ammonium],seedling rate and symptom of pesticide damage,[5],died
same,seedling rate and symptom of pesticide damage,[5]; listed as Glufosinate-ammonium,sensitive
same,seedling rate and symptom of pesticide damage,[6],died
COC(=O)[C@@H](C)Oc1ccc(Oc2ncc(C(F)(F)F)cc2Cl)cc1 [haloxyfop-R-methyl],seedling rate and symptom of pesticide damage,[6],died
CC(C)N.O=C(O)CNCP(=O)(O)O [glyphosate isopropylamine],survival rate,[7],more than 84%
